Test results published in patent US12325726B2, “Organic compounds” (priority 2018, dated 2025).
Where two headings read alike, the source gives them in different places.

Tests used:
[1] = In vivo mouse pharmacokinetics, paired oral co-dosing, plasma and brain; set-up: species or system mice; settings: 10 mg/kg po co-dosed; for AUC: 0.25-6 hr sampling
Experimental: In a first study, the compounds of Examples 2 to 6 are compared to the Compound of Formula A (Example 1) using standard procedures in mice. In each test, two compounds are co-dosed in a single animal and the relative pharmacokinetics in plasma and brain is determined. Each test compound is dissolved in polyethylene glycol 400 vehicle, and administered orally at a dose of 10 mg/kg. After single dose oral administration of the test compounds together, plasma and brain levels are measured at 0.25, 0.5, 1, 2, 4, and 6 hours post-dosing. The mean values for maximum concentration, time to maximum concentration, and Area Under the Curve (AUC) for both compounds are determined. The results are summarized in the tables below for various paired co-dosing experiments: […]

GABAA receptor = test: [35S]-TBPS binding inhibition (in vitro potency); settings: inhibition of specific binding of [35S]-TBPS
Experimental: (§1) In vitro potency [ability to inhibit the binding of [^35S]-tert-butylbicyclophosphorothionate (TBPS)], rotorod TD50's (dose at which half of animals tested fail to stay on a rotating rod for 1 minute) and the length of time before animals tested are able to pass rotorod test (duration of action) of 3α-Hydroxy-21-(1′-imidazolyl)-3β-methoxymethyl-5α-pregnan-20-one is determined. These methods for measuring in vitro and in vivo activity of compounds of the invention are fully described in U.S. Pat. No. 5,232,917, incorporated herein by reference in its entirety. The TBPS assay gives the in vitro potency of compounds whereas the rotorod assay estimates the sedative/hypnotic activity of compounds. Since the duration of action of a compound is dependent on the dose and will be prolonged at higher doses, the duration of action is measured at the lowest dose at which all of the animals failed the rotorod test. IC50 is the dose of steroid inhibiting 50% of specific binding of [^35S]-tert-butylbicyclophorothionate (TBPS). Rotorod TD50 is the does at which half of animals fail the rotorod test in rat. Duration of action, measured at the lowest dose where all animals failed the rotorod test, is the time required for all animals tested to once again pass the rotorod test.

[2] = cited from earlier work
human hepatocyte = test: In vitro human hepatocyte stability assay; assay type: in vitro ADME; settings: human hepatocytes
Experimental: The compounds of Examples 1, 2, 5 and 6 are compared in a standard in vitro human hepatocyte stability assay run in duplicate. Compounds are provided as 1 M solutions in DMSO, and concentration of test compound is determined at 0.5, 1.0 and 4.0 hours after addition of the test compound. Results are shown below as a percentage of initial concentration.

rat = test: Rotorod test (sedative/hypnotic activity, duration of action); assay type: in vivo
Experimental: as §1

[3] = brain, read-out: Brain concentration
[4] = plasma, read-out: Plasma concentration

Structure (SMILES): COC[C@@]1(O)CC[C@@]2(C)[C@@H](CC[C@@H]3[C@@H]2CC[C@]2(C)[C@@H](C(=O)Cn4ccnc4)CC[C@@H]32)C1 [Example 1, 3α-Hydroxy-21-(1′-imidazolyl)-3β-methoxymethyl-5α-pregnan-20-one]
- Cmax ([1]; brain): 2880 ng/g
- Tmax ([1]; brain): 1 h
- AUC ([1]; brain): 14200 ng·h/mL
- concentration at 0.25 hr [1, 3]: 2280 ng/g
- concentration at 0.5 hr [1, 3]: 2230 ng/g
- concentration at 1 hr [1, 3]: 2880 ng/g
- concentration at 2 hr [1, 3]: 2520 ng/g
- concentration at 4 hr [1, 3]: 2360 ng/g
- concentration at 6 hr [1, 3]: 2090 ng/g
- Kp ([1]; brain/plasma, read-out: B/P AUC Ratio): 1.2
- Cmax ([1]; plasma): 2580 ng/mL
- Tmax ([1]; plasma): 1 h
- AUC ([1]; plasma): 11700 ng·h/mL
- concentration at 0.25 hr [1, 4]: 2270 ng/mL
- concentration at 0.5 hr [1, 4]: 1820 ng/mL
- concentration at 1 hr [1, 4]: 2580 ng/mL
- concentration at 2 hr [1, 4]: 2100 ng/mL
- concentration at 4 hr [1, 4]: 1840 ng/mL
- concentration at 6 hr [1, 4]: 1750 ng/mL
- IC50 (GABAA receptor): 138 nM
- AUC (0-24) ([2]; human, oral 1 mg fasted, mean): 16.9 ng·h/mL
- AUC (0-last) ([2]; human, oral 1 mg fasted, mean): 22.4 ng·h/mL
- Cmax ([2]; human, oral 1 mg fasted, mean): 1.3 ng/mL
- T1/2 ([2]; human, oral 1 mg fasted, mean): 13.8 h
- Tmax ([2]; human, oral 1 mg fasted, mean): 3.1 h
- AUC (0-24) ([2]; human, oral 3 mg fasted, mean): 54.6 ng·h/mL
- AUC (0-last) ([2]; human, oral 3 mg fasted, mean): 65.6 ng·h/mL
- Cmax ([2]; human, oral 3 mg fasted, mean): 5.7 ng/mL
- T1/2 ([2]; human, oral 3 mg fasted, mean): 8.8 h
- Tmax ([2]; human, oral 3 mg fasted, mean): 2.8 h
- AUC (0-24) ([2]; human, oral 10 mg fasted, mean): 213 ng·h/mL
- AUC (0-last) ([2]; human, oral 10 mg fasted, mean): 254 ng·h/mL
- Cmax ([2]; human, oral 10 mg fasted, mean): 26.5 ng/mL
- T1/2 ([2]; human, oral 10 mg fasted, mean): 13.1 h
- Tmax ([2]; human, oral 10 mg fasted, mean): 1.7 h
- AUC (0-24) ([2]; human, oral 30 mg fasted, mean): 952 ng·h/mL
- AUC (0-last) ([2]; human, oral 30 mg fasted, mean): 1117 ng·h/mL
- Cmax ([2]; human, oral 30 mg fasted, mean): 120 ng/mL
- T1/2 ([2]; human, oral 30 mg fasted, mean): 13.1 h
- Tmax ([2]; human, oral 30 mg fasted, mean): 2.1 h
- AUC (0-24) ([2]; human, oral 60 mg fasted, mean): 2330 ng·h/mL
- AUC (0-last) ([2]; human, oral 60 mg fasted, mean): 2608 ng·h/mL
- Cmax ([2]; human, oral 60 mg fasted, mean): 330 ng/mL
- T1/2 ([2]; human, oral 60 mg fasted, mean): 12.5 h
- Tmax ([2]; human, oral 60 mg fasted, mean): 1.8 h
- T1/2 ([2]; humans, oral dosing, average across five dosing groups): approximately 12 hours
- percentage of initial concentration (human hepatocyte; 0 hr): 100%
- percentage of initial concentration (human hepatocyte; 0.5 hr): 94%
- percentage of initial concentration (human hepatocyte; 1.0 hr): 90%
- percentage of initial concentration (human hepatocyte; 4.0 hr): 78%
- TD50 (rat; Rattus norvegicus, po, read-out: rotorod TD50 (po)): 28 mg/kg
- duration of action (rat; at lowest dose where all animals failed the rotorod test, time until all pass again): 140 min
